Data as given in patent US7125903B1 (Aventis Pharmaceuticals Inc., priority 1999, dated 2006).
Counter-ions that a name gives are not always drawn. Like-named read-outs stand apart in the source and are kept apart here.

Experiments:
[1] = molecular target: T1, human D4 receptor (D4.2 sub-type) (Homo sapiens, UniProt P21917, DEL265-296); test: D4 receptor binding assay (3H-spiperone displacement); settings: for inhibition at 1 µM: 1 μM test compound, inhibition of 3H-spiperone binding, read-out: D4 RBA % Inhib. @ 1 μM; for Ki: 3H-spiperone 0.25 nM, membranes of HEK 298 cells with human D4.2, Cheng-Prusoff from IC50, read-out: D4 RBA Ki
T1 construct: expressed in transfected cells
T1 sequence (P21917 with tags, fused parts or gaps DEL265-296): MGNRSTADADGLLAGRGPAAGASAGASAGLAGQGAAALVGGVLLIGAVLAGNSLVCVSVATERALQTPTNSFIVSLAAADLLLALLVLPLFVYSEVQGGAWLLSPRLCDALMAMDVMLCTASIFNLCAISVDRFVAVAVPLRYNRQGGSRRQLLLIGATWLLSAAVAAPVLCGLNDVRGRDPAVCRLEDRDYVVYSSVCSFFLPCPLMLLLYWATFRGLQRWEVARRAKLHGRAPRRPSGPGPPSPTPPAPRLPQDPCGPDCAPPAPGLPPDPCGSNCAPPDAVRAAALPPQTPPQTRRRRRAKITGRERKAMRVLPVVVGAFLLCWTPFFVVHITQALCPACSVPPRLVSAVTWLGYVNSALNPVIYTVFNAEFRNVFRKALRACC
Protocol: D4 receptor-binding affinities of the compounds were evaluated according to their ability to reduce binding of ^3H-spiperone as compared to the reference compound clozapine. The potency of the test compound to reduce ^3H-spiperone binding directly correlated to its binding affinity for the receptor.
[…] (human embryonic kidney) cells stably transfected with human D4 receptor (D4.2 sub-type) were grown in NUNC cell factories for 5 days (75% confluency) without a media change and removed with versene (approximately 19 mg of cells per cell factory tray). The cells were then centrifuged in a Sorval centrifuge for 10 min, 5000 rpm (GS3 rotor) and the pellets quickly frozen in liquid nitrogen and stored at −80° C. until used in binding assay. When used in the assay, cells were thawed on ice for 20 min and then 10 mL of incubation buffer (50 mM Tris, 1 mM EDTA, 4 mM MgCl2, 5 mM KCl, 1.5 mM CaCl2, 120 mM NaCl, pH 7.4) was added. The cells were then vortexed to resuspend pellet and homogenized with a Kinematica, CH-6010 Kriens-LU, homogenizer for 15 seconds at setting 7. Concentration of receptor protein was determined using the Pierce BCA assay.
The incubation was started by the addition of 100 μl (50 μg protein) membrane homogenate to a solution of 300 μl incubation buffer and 100 μl (0.25 nM final conc.) ^3H-spiperone (90 Ci/mmol, Amersham, diluted in borosilicate glass vial) in 96-well polypropylene plates (1 mL per well). The plates were vortexed and incubated at room temperature for 90 minutes. The binding reaction was stopped by filtering using a Packard Harvester. The samples were filtered under vacuum over glass fibre filter plates (Whatman GF/B) presoaked for 2 hours in 0.3% polyethylenimine (PEI) in 50 mM Tris buffer (pH 7.4). The filters were then washed 6 times with 7 mL ice cold 50 mM Tris buffer (pH 7.4). The filter plates were dried overnight and 35 μl of Microscint-O (Packard) was added. The plates were sealed and counted in the Packard Top Count (3 minutes per well).
The incubation was started by the addition of 100 μl (50 μg protein) membrane homogenate to a solution of 200 μl incubation buffer, 100 μl ^3H-spiperone (90 Ci/mmol, Amersham, diluted in borosilicate glass vial to 0.25 nM final conc.) and 100 μl (30 μM final conc.) of fresh dopamine (Research Biochemicals Inc., light protected and dissolved in incubation buffer) in 96-well polypropylene plates (1 mL per well). The plates were vortexed and incubated at room temperature for 90 minutes at which time the binding reaction was stopped by filtering. The filters were washed and counted using the same procedure as in the total binding assay described above to give the nonspecific binding value (NSB).
The incubation was started by the addition, in 96-well polypropylene plates (1 mL per well), of 100 μl (50 μg protein) membrane homogenate to a solution of 200 μl incubation buffer, 100 μl (0.25 nM final conc.) ^3H-spiperone (90 Ci/mmol, Amersham, diluted in borosilicate glass vial) and 100 μl of test compound that was prepared from 1 mM stock dissolved in DMSO and stored at −20° C. in polypropylene cryogenic storage vials until dilution in incubation buffer in 96-well polypropylene plates. The plates were vortexed and incubated at room temperature for 90 minutes at which time the binding reaction was stopped by filtering. The filters were washed and counted using the same procedure as in the total binding assay described above to give the displacement binding value (BD).
The test compounds were initially assayed at 1 and 0.1 μM and then at a range of concentrations chosen such that the middle dose would cause about 50% inhibition of ^3H-spiperone binding. Specific binding in the absence of test compound (B0) was the difference of total binding (BT) minus non-specific binding (NSB) and similarly specific binding (in the presence of test compound) (B) was the difference of displacement binding (BD) minus non-specific binding (NSB). […]

MK801 Stereotypy = test: MK-801 Stereotypy in Mice; format: in vivo; settings: Mus musculus, read-out: Antagonism of MK801 Stereotypy % Inhib. @ 20 mg/kg (route)
Protocol: Mk-801 dose-dependently induces characteristic stereotypy marked by locomotion and falling behavior. This MK-801 induced behavior can be antagonized by novel neuroleptic agents. This assay can also assess time course effects following drug administration.
CD-1 or C57 male mice are individually placed in activity boxes (8 mice/drug) and allowed to acclimate for 60 minutes. The mice are then administered test compounds either i.p., s.c., or p.o., at 15, 30, or 60 minutes prior to MK-801 (0.2 mg/kg) administration. Mice are observed for the presence of locomotion and falling behaviors 15 minutes following MK-801. For the duration of action studies the test compounds are administered i.p., s.c., or p.o., at 30, 60, 120, 180, and 240 minutes prior to MK-801 administration.

[2] = 20 mg/kg ip, mice, MK-801 0.2 mg/kg

| Structure (SMILES) | melting point | Ki [1] | also measured |
| --- | --- | --- | --- |
| C[C@](O)(CNCc1ccccc1Cl)COc1cccc(-c2noc3ccsc23)c1 [Example 53] |  |  | inhibition at 1 µM [1]: 96%; inhibition in vivo at 20 mg/kg (MK801 Stereotypy; 20 mg/kg po, mice, MK-801 0.2 mg/kg): 50% |
| COc1ccc2[nH]nc(N3CCN(C[C@@H](O)COc4cccc(-c5noc6ccsc56)c4)CC3)c2c1 [Example 12, (2R)-1-[4-(5-methoxy-1H-indazol-3-yl)-piperazin-1-yl]-3-(3-thieno[2,3-d]isoxazol-3-yl-phenoxy)-propan-2-ol] | 84 to 86 °C |  |  |
| C[C@](O)(CNCc1ccccc1)COc1cccc(-c2noc3ccsc23)c1 [Compound 3, (2S)-(+)-1-benzylamino-2-methyl-3-(3-thieno[2,3-d]isoxazol-3-yl-phenoxy)propan-2-ol maleate] |  | 3.3 nM | inhibition in vivo at 20 mg/kg (MK801 Stereotypy; [2]): 37.5% |
| O[C@H](CNCc1cccs1)COc1cccc(-c2noc3ccsc23)c1 [Compound 6, (2R)-1-(3-thieno[2,3-d]isoxazol-3-yl-phenoxy)-3-[(thiophen-2-ylmethyl)amino]propan-2-ol L-tartrate] |  | 12.6 nM | inhibition in vivo at 20 mg/kg (MK801 Stereotypy; [2]): 25% |
| Cc1ccc(CNC[C@](C)(O)COc2cccc(-c3noc4ccsc34)c2)cc1 [Example 58, hydrochloride] |  |  | inhibition at 1 µM [1]: 100%; inhibition in vivo at 20 mg/kg (MK801 Stereotypy; po): 37.5% |
| C[C@@](O)(CNCc1ccccc1)COc1cccc(-c2noc3ccsc23)c1 [Compound 4, (2R)-(−)-1-benzylamino-2-methyl-3-(3-thieno[2,3-d]isoxazol-3-yl-phenoxy)propan-2-ol maleate] |  | 37.7 nM | inhibition in vivo at 20 mg/kg (MK801 Stereotypy; [2]): 12.5% |
| OC(CNC[C@@H](O)COc1cccc(-c2noc3ccsc23)c1)c1ccccc1 (some centres unmarked) [Example 27] |  | 131 nM | inhibition in vivo at 20 mg/kg (MK801 Stereotypy; 20 mg/kg sc, mice, MK-801 0.2 mg/kg): 75% |
| COc1ccccc1N1CCN(C[C@](C)(O)COc2cccc(-c3noc4ccsc34)c2)CC1 [Example 67] |  | 19 nM |  |
| O[C@H](CNCc1ccco1)COc1cccc(-c2noc3ccsc23)c1 [Example 25] |  | 57 nM |  |
| O[C@H](CNCC1CCCCC1)COc1cccc(-c2noc3ccsc23)c1 [Example 92] |  |  | inhibition at 1 µM [1]: 94% |
| O[C@H](CNC1Cc2ccccc2C1)COc1cccc(-c2noc3ccsc23)c1 [Compound 91 (HCl), (2R)-1-(indan-2-ylamino)-3-(3-thieno[2,3-d]isoxazol-3-yl-phenoxy)-propan-2-ol] |  | 17 nM |  |
| Cn1nc(-c2cccc(OC[C@H](O)CN3CCN(c4ncccn4)CC3)c2)c2sccc21 [Example 101] |  |  | inhibition at 1 µM [1]: 89% |
| COc1ccccc1N1CCN(C[C@@H](O)COc2ccc(-c3noc4ccsc34)cc2)CC1 [Example 45] |  | 80 nM |  |
| O[C@@H](COc1cccc(-c2noc3ccsc23)c1)CN1CCC(O)(c2ccc(Cl)cc2)CC1 [Example 90] |  |  | inhibition at 1 µM [1]: 59% |
| C[C@@](O)(CNCc1cccs1)COc1cccc(-c2noc3ccsc23)c1.O=C(O)/C=C\C(=O)O [Example 27] | 120 to 121 °C |  |  |
| C[C@@](O)(CNCc1cccs1)COc1cccc(-c2noc3ccsc23)c1 [Compound 5 (freebase)] |  | 26 nM |  |
| O[C@@H](COc1cccc(-c2noc3ccsc23)c1)CN1CCN(Cc2ccc3c(c2)OCO3)CC1 (as salt: hydrochloride) [Example 51, (2R)-1-(4-benzo[1,3]dioxol-5-ylmethyl-piperazin-1-yl)-3-(3-thieno[2,3-d]isoxazol-3-yl-phenoxy)propan-2-ol] | 225 to 227 °C |  |  |

Now from value to compound, other results behind:

| melting point | Ki [1] | Structure (SMILES) | also measured |
| --- | --- | --- | --- |
| 96 to 99 °C |  | O[C@@H](COc1cccc(-c2noc3ccsc23)c1)CN1CCN(c2ccccc2F)CC1 [Example 44, (2R)-1-[4-(2-fluorophenyl)piperazin-1-yl]-3-(3-thieno[2,3-d]isoxazol-3-yl-phenoxy)-propan-2-ol] |  |
| 77 to 79 °C |  | O[C@@H](COc1cccc(-c2noc3ccsc23)c1)CN1CCN(c2ccccc2C(F)(F)F)CC1 [Example 52, (2R)-1-(3-thieno[2,3-d]isoxazol-3-yl-phenoxy)-3-[4-(2-trifluoromethylphenyl)-piperazin-1-yl]propan-2-ol] |  |
| 118 to 120 °C |  | O[C@@H](COc1cccc(-c2noc3ccsc23)c1)CN1CCN(c2cccc(Cl)c2)CC1 [Example 47, (2R)-1-[4-(3-chlorophenyl)piperazin-1-yl]-3-(3-thieno[2,3-d]isoxazol-3-yl-phenoxy)-propan-2-ol] |  |
| 87 to 89 °C |  | N#Cc1ccccc1N1CCN(C[C@@H](O)COc2cccc(-c3noc4ccsc34)c2)CC1 [Example 50, 2-{4-[(R)-2-hydroxy-3-(3-thieno[2,3-d]isoxazol-3-yl-phenoxy)-propyl]piperazin-1-yl}benzonitrile] |  |
| 127 to 129 °C |  | O[C@@H](COc1cccc(-c2noc3ccsc23)c1)CN1CCN(c2ccccc2)CC1 [Example 49, (2R)-1-(4-phenylpiperazin-1-yl)-3-(3-thieno[2,3-d]isoxazol-3-yl-phenoxy)propan-2-ol] |  |
| 83 to 86 °C |  | O[C@@H](COc1cccc(-c2noc3ccsc23)c1)CN1CCN(c2ccccc2Cl)CC1 [Example 46, (2R)-1-[4-(2-chlorophenyl)piperazin-1-yl]-3-(3-thieno[2,3-d]isoxazol-3-yl-phenoxy)-propan-2-ol] |  |
| 97 to 99 °C |  | O[C@@H](COc1cccc(-c2noc3ccsc23)c1)CN1CCN(c2n[nH]c3cc(F)ccc23)CC1 [Example 11, (2R)-1-[4-(6-fluoro-1H-indazol-3-yl)-piperazin-1-yl]-3-(3-thieno[2,3-d]isoxazol-3-yl-phenoxy)-propan-2-ol] |  |
| 110 to 113 °C |  | COc1ccc(N2CCN(C[C@@H](O)COc3cccc(-c4noc5ccsc45)c3)CC2)cc1 [Example 48, (2R)-1-[4-(4-methoxyphenyl)piperazin-1-yl]-3-(3-thieno[2,3-d]isoxazol-3-yl-phenoxy)-propan-2-ol] |  |
|  | 6 nM | O[C@@H](COc1cccc(-c2noc3ccsc23)c1)CN1CCN(c2nsc3ccccc23)CC1 [Example 76] |  |
